Results published in the supplement of paper PMC10307832.

What was measured:
Test in all cases: relative viability (nuclei count vs DMSO), 5 days (fraction); higher = more cells survive
Shikonin = compound: CC(C)=CC[C@@H](O)C1=CC(=O)c2c(O)ccc(O)c2C1=O [Shikonin]
Outline: (§1)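 After an overnight hold at 37 °C, lung cancer cell lines in 1536-well plates were pinned with five library-drug doses (not always all listed), each √10 from the next, on vehicle-anchored plates. The cells stayed 5 days without fresh medium, then a one-step fix, permeabilisation and Hoechst stain preceded 4× imaging and MetaXpress nuclear counts. A plate passed only with control CV under 25% and at least one doubling. Viability is the median, over plates, of treated-well nuclei relative to vehicle-well nuclei.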

[1] = compound: CC(C)N(CCCNC(=O)Nc1ccc(C(C)(C)C)cc1)C[C@H]1O[C@@H](n2ccc3c(N)ncnc32)[C@H](O)[C@@H]1O
Outline: as §1

Shikonin + Trametinib = compound: CC(C)=CC[C@@H](O)C1=CC(=O)c2c(O)ccc(O)c2C1=O [Shikonin] + CC(=O)Nc1cccc(-n2c(=O)n(C3CC3)c(=O)c3c(Nc4ccc(I)cc4F)n(C)c(=O)c(C)c32)c1 [Trametinib] (partner 0.02 µM)
Outline: (§2)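 Dosing by pin tool came one day after lung cancer cell lines were seeded in 1536-well plates, using either one drug or a fixed anchor-drug dose plus five library-drug doses (not always all listed) in √10 steps. After 5 days, nuclei were counted on 4× images. Relative viability is treated-well nuclei count divided by vehicle-well nuclei count, and values are medians of duplicate plates.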

[2] = compound: CC(C)N(CCCNC(=O)Nc1ccc(C(C)(C)C)cc1)C[C@H]1O[C@@H](n2ccc3c(N)ncnc32)[C@H](O)[C@@H]1O + CC1(C)CCC(c2ccc(Cl)cc2)=C(CN2CCN(c3ccc(C(=O)NS(=O)(=O)c4ccc(N[C@H](CCN5CCOCC5)CSc5ccccc5)c(S(=O)(=O)C(F)(F)F)c4)cc3)CC2)C1 [Navitoclax] (partner 0.5 µM)
Outline: as §2

Cell Line	relative viability (Shikonin; 0.01 µM)	relative viability (Shikonin; 0.1 µM)	relative viability (Shikonin; 0.3162 µM)	relative viability (Shikonin; 1 µM)	relative viability ([1]; 0.08 µM)	relative viability ([1]; 0.253 µM)	relative viability ([1]; 0.8 µM)	relative viability ([1]; 2.53 µM)	relative viability ([1]; 8 µM)	relative viability (Shikonin + Trametinib; first compound 0.01 µM)	relative viability (Shikonin + Trametinib; first compound 0.1 µM)	relative viability (Shikonin + Trametinib; first compound 0.3162 µM)	relative viability (Shikonin + Trametinib; first compound 1 µM)	relative viability ([2]; first compound 0.08 µM)	relative viability ([2]; first compound 0.253 µM)	relative viability ([2]; first compound 0.8 µM)	relative viability ([2]; first compound 2.53 µM)	relative viability ([2]; first compound 8 µM)
LU99A	1.02	1	0.996	0.923	0.876	0.842	1.04	0.979	1.02	0.537	0.563	0.567	0.478	0.745	0.717	0.747	1.01	0.881
NCI-H1993	0.915	1.01	0.94	0.974	0.86	–	0.905	0.919	0.922	0.526	0.516	0.563	0.568	0.944	1.03	0.872	0.807	0.959
NCI-H2405	0.998	1.04	1.08	1.02	1.02	0.974	0.931	1.06	0.966	0.622	0.725	0.653	0.573	0.957	–	0.991	1	1.05
NCI-H2023	1.05	1.17	1.19	0.972	0.955	0.864	0.977	0.931	0.846	0.546	0.534	0.64	0.56	0.989	1.05	1.01	1.05	0.988
HCC-15	1.06	1.04	1.12	1.09	0.938	0.986	0.786	0.979	0.914	0.389	0.35	0.414	0.418	0.653	0.717	0.733	0.707	0.673
HCC-44	1	1.05	1.03	1.09	0.989	1.04	0.789	0.976	0.93	1.08	1.01	0.996	1.08	0.952	1.1	0.915	0.961	1.03
COR-L23	1.18	1.02	1.12	0.995	1.04	1.03	1.08	1.01	1.02	0.769	0.685	0.622	0.508	0.977	0.919	0.982	1.01	0.963
HCC-78	0.942	1.14	1.04	1.15	1.05	0.787	0.942	0.875	1	0.773	0.906	0.828	0.734	0.704	0.646	0.607	0.784	0.839
PC-14	1.08	1	1.12	1.11	0.975	0.981	0.951	0.967	0.904	0.936	0.9	0.893	0.769	1	0.996	0.946	1.03	0.847
NCI-H2126	1.01	1.07	1.07	1.03	0.955	0.918	0.942	0.961	0.905	0.549	0.553	0.607	0.571	0.887	0.825	0.851	0.848	0.776
BEN	0.926	1	1.03	1.18	0.954	1.02	0.948	0.863	1.03	1.13	1.06	1.03	1.19	0.0864	0.0543	0.0608	0.0499	0.0778
EKVX	1	0.963	1.08	0.964	1	0.934	0.932	1	0.862	0.326	0.336	0.389	0.398	0.905	0.974	0.976	0.95	0.915
LXF-289	1.08	0.999	1.08	0.992	0.97	1.03	0.923	1.03	0.95	0.668	0.756	0.712	0.701	1	0.969	0.957	0.988	0.854
NCI-H727	0.916	1.03	0.933	1.02	0.867	0.815	0.868	0.931	0.943	0.351	0.375	0.389	0.409	0.416	0.389	0.499	0.534	0.506
NCI-H1650	0.914	0.992	0.782	0.962	0.865	0.909	–	0.952	0.934	0.582	0.492	0.523	0.491	1.11	1.17	–	1.14	1
NCI-H2087	1.33	1.02	1.12	1.02	1.08	0.934	0.799	1.15	1.07	0.198	0.194	0.189	0.18	1.04	1.11	0.896	1.14	0.989
NCI-H1793	0.926	1.1	0.85	0.936	0.865	–	0.861	0.891	0.854	0.393	0.414	0.392	0.417	0.487	–	0.393	0.505	0.357
LC-2-ad	0.965	1.05	1.01	1.01	0.978	1.03	0.731	0.944	0.882	0.962	1.02	1.02	0.945	0.612	0.409	0.435	0.458	0.462
